Consider 7 compounds from ChEMBL document CHEMBL5523737, “Novel Jatrophane Diterpenoids from Euphorbia esula Promotes Lipid Clearance by Transcriptional Regulation of PCSK9” (J Med Chem, 2024).

What is called inhibition is the relative decrease from the control value, in per cent.

Data set [1] addresses Proprotein convertase subtilisin/kexin type 9 (Homo sapiens) (UniProt Q8NBP7). The data set is described as follows: Inhibition of PCSK9 transcription in human HepG2 cells at 5 uM by AlphaLISA method. Type of data set: cell-based. Background: Bead proximity is the source of the signal in Alpha formats.
For data set [2] the target is unchanged. Kind of data set: Inhibition of PCSK9 transcription in human HepG2 cells by AlphaLISA method. Type of data set: cell-based.
Data set [3] can be described thus: Cytotoxicity against human HepG2 cells assessed as cell viability at 20 uM after 24 hrs by CCK8 assay. Type of data set: toxicity, cell-based. Conditions: read-out: Activity. On the technique in general: Formazan colour is commonly taken as a measure of viable cells.
Data set [4] has as its system HepG2. The data set is described as follows: Induction of LDL uptake in human HepG2 cells incubated for 3 hrs under dark condition by DiI-LDL DMEM staining based fluorescence microplate reader assay. Type of data set: functional, cell-based.
Data set [5] concerns the target Proprotein convertase subtilisin/kexin type 9 (Homo sapiens) (UniProt Q8NBP7). Kind of data set: Inhibition of PCSK9 (unknown origin) promoter activity expressed in HEK293 cells co-transfected with SV40 at 5 to 10 uM incubated for 24 hrs by dual luciferase assay. Type of data set: cell-based. Conditions: dose 5-10 µM.
In data set [6] the test system is HepG2. Kind of data set: Induction of LDL uptake in HNF1alpha knockdown human HepG2 cells at 5 uM incubated for 3 hrs under dark condition by DiI-LDL DMEM staining based fluorescence microplate reader assay. Type of data set: functional, cell-based.

Activity calls are given as the source filed them. The rule behind the calls is not given here. Bounds are passed on as bounds.

Regarding `C=C1[C@@H](OC(C)=O)[C@H]2[C@@H](OC(C)=O)[C@@H](C)C[C@]2(OC(C)=O)C(=O)[C@H](C)/C=C/C(C)(C)C(=O)[C@@H](OC(C)=O)[C@H]1OC(C)=O`, the inhibition in data set [1] is under 1%.
For `C=C1[C@@H](OC(C)=O)[C@H]2[C@@H](OC(C)=O)[C@](C)(OC(C)=O)C[C@]2(OC(C)=O)C(=O)[C@H](C)[C@]2(C)O[C@H]2C(C)(C)[C@H](OC(C)=O)[C@@H](OC(C)=O)[C@H]1OC(=O)C(C)C`, the inhibition in data set [1] worked out at 1.2%.
As to `C=C1[C@@H](OC(C)=O)[C@H]2[C@@H](OC(C)=O)[C@](C)(OC(=O)Cc3ccccc3)C[C@]2(OC(C)=O)C(=O)[C@H](C)/C=C/C(C)(C)[C@H](OC(=O)c2cccnc2)C[C@H]1OC(=O)C(C)C`, the inhibition result in data set [2] is “Dose-Dependent Effect”; in data set [1], 56.1%. For the same compound, the viability at 24 h, 20 µM in data set [3] is over 95%. The outcome in data set [4] and in data set [6] was Active. Further, in data set [5], the inhibition result was “Active”.
As to `C=C1[C@@H](OC(C)=O)[C@H]2[C@@H](OC(C)=O)[C@](C)(OC(C)=O)C[C@]2(OC(C)=O)C(=O)[C@H](C)/C=C/C(C)(C)C(=O)[C@@H](OC(C)=O)[C@H]1OC(=O)C(C)C`, the inhibition result in data set [2] is “Dose-Dependent Effect”; in data set [1], 22.3%. Besides, the viability at 24 h, 20 µM in data set [3] is over 95%. In addition, the outcome in data set [4] was Active.
In data set [1], `C=C1[C@@H](OC(C)=O)[C@H]2[C@@H](OC(C)=O)[C@](C)(OC(C)=O)C[C@]2(OC(C)=O)C(=O)[C@H](C)[C@]2(C)O[C@H]2C(C)(C)[C@H](OC(C)=O)[C@@H](OC(=O)c2ccccc2)[C@H]1OC(=O)C(C)C` had an inhibition of 0.7%.
Turning to `C=C1[C@@H](OC(C)=O)[C@H]2[C@@H](OC(C)=O)[C@](C)(OC(C)=O)C[C@]2(OC(C)=O)C(=O)[C@H](C)[C@]2(C)O[C@H]2C(C)(C)[C@H](OC(C)=O)[C@@H](OC(=O)C(C)C)[C@H]1OC(=O)C(C)C`, the inhibition in data set [1] was 0.1%.
Still for that read-out and setting: with `C=C1[C@@H](OC(C)=O)[C@H]2[C@@H](OC(C)=O)[C@@H](C)C[C@]2(OC(C)=O)C(=O)[C@H](C)/C=C/C(C)(C)[C@H](OC(=O)c2ccccc2)[C@@H](OC(C)=O)[C@H]1OC(C)=O` the figure was 3.1%.
